# Laboratory results taken from patent publication US8609718B2, “Pharmaceutical composition used in treatment of hyperproliferative skin conditions and malignant melanomas comprising pachastrissamine as active ingredient” (Catholic University Industry Academy Cooperation Foundation, priority 2009, dated 2013).
# Key:
# FoxO3a [1] = test: Immunocytochemistry of intracellular FoxO3a distribution; format: cell-based
# Experimental: In order to carry out Immunocytochemistry analysis, cells were transferred to chamber slides, and cultured in a CO2 incubator (37° C., 5%) for 24 hours. After about 12 hours of serum starvation, the cultured cell lines were treated with 10 μg/ml of pachastrissamine for 24 hours. The cell lines treated with pachastrissamine were fixed with 100% methanol, and washed with PBS. Then, in order to make the cells permeable, the cell lines were reacted in a 0.5% Triton X-100 and washed with a PBS solution. Then, by using a solution including 10% FBS and 0.1% gelatin, blocking was carried out at room temperature for 1 hour, and FoxO3a antibody was reacted at 4° C. for 12 hours. After the reaction, the cells were washed with PBS, reacted with a secondary antibody of Alex488 (invitrogen) at room temperature, and washed with PBS again. Finally, for nuclear stain, the cells were reacted with DAPI and washed with PBS. The slide was washed with PBS, attached with glass coverslip, and analyzed through a microscope.
# After the cells with or without over-expression of beta-catenin were treated with pachastrissamine, the distribution of intracellular FoxO3a protein was determined in the same manner as described in Example 4-3.
# FoxO3a [2] = test: FoxO3a immunoprecipitation and ubiquitin western blotting in HEK293T; format: cell-based; conditions: pachastrissamine and EGF
# Experimental: Then, immunoprecipitation was carried out using FoxO3a antibody. The sample obtained from immunoprecipitation was subjected to western blotting by using ubiquitin antibody so as to carry out comparative analysis.
smiles,measurement,setting,value
CCCCCCCCCCCCCC[C@@H]1OC[C@H](N)[C@@H]1O [pachastrissamine],movement of FoxO3a protein to a nucleus,"FoxO3a [1]; 10 μg/ml, 24 hours, FIG. 4D",significantly increased
same,distribution of intracellular FoxO3a protein in cells with over-expression of beta-catenin,"FoxO3a [1]; HaCaT with over-expression of beta-catenin (FoxO3a mostly in cytosol before treatment), FIG. 5D",moved into the nucleus again
same,ubiquitination degree of FoxO3a increased by EGF,FoxO3a [2],decreased
